Test: Relaxivity measurement (T1 by inversion recovery spin echo in aqueous phantoms, Varian 9.4T MRI system)
Type: physicochemical
Conditions: 25° C., in H2O
Method: Relaxivity measurement and MRI were conducted on a Varian 9.4T MRI system (Palo Alto, Calif., USA). T1 was measured by inversion recovery spin echo in aqueous phantoms with concentrations 0.4, 0.2 0.1, 0.05, 0.025, 0.0125 and 0.00625 mM Gd. In vivo study was conducted on Wistar rats (male, weight 320-340 g) under 2% isoflurane anesthesia. CAs were injected (dosage: 0.04 mmol Gd/kg body weight) through tail vein. T1-weighted images were acquired every 6.4 s for 48 min with T1-weighted gradient echo sequence (TR/TE=50/3 ms, flip-angle=20 degree, resolution=[…], thickness=2 mm).

Row | Compound | relaxivity r1
1 | O=C([O-])CN(CCN(CC(=O)[O-])CC(=O)O)CCN(CC(=O)[O-])CC(=O)O.[Gd+3] [Gd-DTPA] | 4.1 mM⁻¹ s⁻¹
2 | O=C([O-])CN1CCN(CC(=O)[O-])CCN(CC(=O)O)CCN(CC(=O)[O-])CC1.[Gd+3] [Gd-DOTA] | 3.9 mM⁻¹ s⁻¹
